Data from PubChem BioAssay AID179 (DTP/NCI, 2004).
Where “and” joins values, the source holds several entries; their conditions need not be identical. Equal values may be shown once. Calls of active or inactive are those of the source.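 How the source made its calls: active means compounds giving half or more protection of infected cells from virus-caused growth loss, again on retest; inactive means the rest.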

System: CEM cells HIV-1 protection, formazan growth assay
Test: NCI AIDS Antiviral Assay
Conditions: for IC50: measured here: growth of uninfected CEM cells
Summary of the method: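 Human CEM cells, uninfected and HIV-1-infected, exposed to five drug concentrations; growth measured by soluble formazan assay and scored as percent protection from infection, with protecting compounds retested.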

| Structure (SMILES) | EC50 [µM] | IC50 | outcome |
| --- | --- | --- | --- |
| CN1CCCS/C1=C1/SC(=S)N(c2ccccc2)C1=O | > 30.9 | > 30.9 µM | – |
| COC(=O)CCC(C)C1CCC2C3=CC(=O)C4CC(OC(C)=O)CCC4(C)C3CC(OC(C)=O)C21C (configuration not stated) | > 51.3 | 37.2 µM | – |
| CC(=O)N(CN1C(=O)CCC1C(=O)O)c1ccccc1 (configuration not stated) | – | – | inactive |
| O=CSC(=Nc1ccc(Cl)cc1)NC(=O)COc1ccc(Cl)cc1 | > 148 | > 100 µM | – |
| COc1ccc(/C=C2/CCCC/C2=N/O)cc1 | > 295 | 182 µM | – |
| Cc1ccc(SCC(OCn2cnc3c(N)ncnc32)[C@H](C)F)cc1 (some centres not stated) | > 200 | 191 µM | – |
| Cn1nc(-c2ccccc2)c2c(-c3ccccc3)c3cc(Cl)ccc3nc21 | > 100 | > 100 µM | – |
| Cc1cccc2c(NCCN(C)C)c3cccc(C(=O)NCCN(C)C)c3nc12 | > 0.2 | 0.195 µM | – |
| CCOC1=NC(O)c2cccn2-c2sccc21 (configuration not stated) | > 200 | 126 µM | – |
| CCCCCCCC(=O)O[C@H]1[C@H]2[C@@H](CC1(C)C)C(=O)[C@]13O[C@H]1C(=O)[C@]1(CO1)[C@]23C | > 162 | 0.55 µM | – |
| O=C(O)C1CC2C3CCC2C1C3=O (configuration not stated) | > 200 | > 200 µM | – |
| O=Cc1c(C(=O)O)[nH]c(=O)[nH]c1=O | > 200 | > 200 µM | – |
| COC(=O)C1(NC(=O)C(N)CC(=O)O)C(C)C1C (configuration not stated) | > 200 | > 200 µM | – |
| Cc1ccc(/C([O-])=C(\C(=S)Nc2cccc(C)c2)[n+]2ccccc2)cc1 | – | – | inactive |
| N/C(CSCCSC/C(N)=N/O)=N\O | > 200 | > 200 µM | – |
| Nc1ccn(C2OC(COP(=O)(O)O)C(O)OC2O)c(=O)n1 (configuration not stated) | – | – | inactive |
| Cn1c(=O)nc2n(CCO)c(-c3ccccc3)c(-c3ccccc3)nc-2c1=O | > 200 | > 200 µM | – |
| CCN(CC)CCN1CC(=O)N2Cc3ccccc3CN2C(=O)C1 | > 200 | > 200 µM | – |
| NCCSSCCN | – | – | active |
| CC(C)(C)C(=O)/C=C/c1cccc(C#N)c1 | > 123 | 6.61 µM | – |
| O=c1nc(N2CCCC2)nc(N2CCCC2)s1 | – | – | inactive |
| CC1(O)CC2C(CC1SCCO)C2(C)C (configuration not stated) | > 1070 | 631 µM | – |

| Structure (SMILES) | EC50 [µM] | IC50 | outcome |
| --- | --- | --- | --- |
| Nc1ncnc2c1ncn2C1C[C@H](O)[C@]2(CO)C[C@H]12 (some centres not stated) | > 50.1 | > 50.1 µM | – |
| Cc1ccc(-c2cssc2=S)cc1 | > 200 | > 200 µM | – |
| c1cnc(SCc2nc3ccccc3o2)nc1 | 38 | > 200 µM | – |
| CCOC(=O)C(NC(C)=O)(Nc1ccc(S(N)(=O)=O)cc1)C(F)(F)F (configuration not stated) | > 200 | > 200 µM | – |
| CCC(C)C(NC(=O)C(CCCCN)NC(=O)CNC(=O)C(NC(=O)C(NC(=O)C(NC(=O)C(Cc1ccccc1)NC(=O)C(C)NC(=O)C(CCCNC(=N)N)NC(=O)CNC(=O)C1CCCN1C(=O)CNC(=O)C(CCCNC(=N)N)NC(=O)C(CCC(N)=O)NC(=O)C(NC(=O)C(CCCNC(=N)N)NC(=O)C(NC(=O)C(CO)NC(=O)C(CCCCN)NC(=O)C(CCCNC(=N)N)NC(=O)C(NC(=O)C(CC(N)=O)NC(=O)C(N)CC(=O)NC1OC(CO)C(O)C(O)C1NC(C)=O)C(C)O)C(C)CC)C(C)CC)C(C)C)C(C)O)C(C)CC)C(=O)NCC(N)=O (configuration not stated) | > 50.1 | > 50.1 µM | – |
| COc1ccc(/C=C2\NC(=S)NC2=O)cc1 | > 200 | 151 µM | – |
| Nc1ccc(N=Nc2ccc(C(=O)O)cc2)c(N)c1N=Nc1ccc(N=Nc2ccc(O)c(C(=O)O)c2)cc1 | 49 | > 100 µM | – |
| C[N+]12CCCc3cc(CO)cc(c31)CCC2 | 112 | 603 µM | – |
| CCN(CC)c1ccc(C(=C2C=CC(=[N+](CC)CC)C=C2)c2ccc(S(=O)(=O)O)cc2S(=O)(=O)[O-])cc1 | – | – | inactive |
| O=C(Nc1ccc2c(O)c(N=Nc3ccccc3)c(S(=O)(=O)O)cc2c1)Nc1ccc2c(O)c(N=Nc3ccccc3)c(S(=O)(=O)O)cc2c1 | 40.7 | 50.1 µM and 191 µM | – |
| O=C(Nc1ccc(/C=C/c2ccc(NC(=O)c3ccc(O)cc3O)cc2S(=O)(=O)O)c(S(=O)(=O)O)c1)c1ccc(O)cc1O | > 151 | 126 µM | – |
| Cc1ccc(N2CC(O)CSC2=Nc2ccccc2)cc1 (configuration not stated) | > 112 | 46.8 µM | – |
| COc1ccc2c(OC)c3ccoc3nc2c1O | > 50.1 | 32.4 µM | – |
| CCCCCCCCCCCC1N=C(N)NC(CCCO)=C1C(=O)OC (configuration not stated) | > 200 | 3.47 µM | – |
| CCCCCCNCCc1cnc[nH]1 | > 200 | > 200 µM | – |
| O=C1C=Cc2ccccc2/C1=C/c1[nH]c(=O)[nH]c1O | > 200 | 16.2 µM | – |
| CC(C)N1CCOC12CCCC2 | > 200 | 29.5 µM | – |
| CCOC(=O)c1ccc(N2CN3c4ccccc4CCC3C2c2c[nH]c(=O)[nH]c2=O)cc1 (configuration not stated) | > 69.2 | > 69.2 µM | – |
| C[C@@]1(O)C2/C(=N/O)C3CC1(c1ccccc1)CC(/C3=N/O)C2c1ccccc1 (some centres not stated) | > 100 | > 100 µM | – |
| N#Cc1sc2c(c1OC(=O)c1ccc(Cl)cc1)c(=O)n(-c1ccccc1)c(=S)n2-c1ccccc1 | > 200 | 1.2 µM | – |
| NC(CCCCNCc1ccccc1)C(=O)O (configuration not stated) | > 1050 | > 1050 µM | – |
| NC(CSS(=O)(=O)O)=NC1CCCCC1 | > 200 | 138 µM | – |

| Structure (SMILES) | EC50 [µM] | IC50 | outcome |
| --- | --- | --- | --- |
| CCn1c(SCC(=O)NNC(=S)NC)nc2ccccc2c1=O | > 200 | > 200 µM | – |
| CN(C)c1ccc(-c2ccc(N(C)C)c3n[se]nc23)c2n[se]nc12 | > 200 | > 200 µM | – |
| COc1ccc(/C=C\c2cc(OC)c(OC)c(OC)c2)cc1OCC(=O)O | – | – | inactive |
| O=C1OC(C2Cc3cc4c(cc3C2=O)CCC4)c2ccccc21 (configuration not stated) | > 200 | 33.9 µM | – |
| CCOC(=O)c1nc2ccccc2nc1NCc1ccc(OC)c(OC)c1 | > 200 | > 200 µM | – |
| NNC(=O)CCC(=O)NC1C2CC3CC(C2)CC1C3 (configuration not stated) | > 676 | > 676 µM | – |
| COc1cccc(/C=C2\N=C(Cl)OC2=O)c1O | > 20.4 | > 20.4 µM | – |
| C=C(C)C(=O)OC1C[C@H](COC(C)=O)C2CC=C(CO)C2C2OC(=O)C(=C)[C@H]12 (some centres not stated) | > 200 | 9.12 µM | – |
| O=c1c2cccnc2[nH]c2ccc3scnc3c12 | > 200 | > 200 µM | – |
| OCC1C(CO)C2CCC1C2(c1ccccc1)c1ccccc1 (configuration not stated) | > 95.5 | 60.3 µM | – |
| Cn1c(=O)n(-c2c3ccccc3c(Cl)c3ccccc23)n(C(C)(C)C)c1=O | > 100 | > 100 µM | – |
| O=S1(=O)OCCOS(=O)(=O)C1Cc1ccccc1 | > 447 | 50.1 µM | – |
| COc1ccc(/C=C/C(=O)CC(=O)/C=C/c2ccc(OC)cc2)cc1 | > 200 | > 200 µM | – |
| Cc1cccc(C)c1NC(=O)CCC(=O)NC(N)=NC#N | > 457 | > 457 µM | – |
| CCN(CC)c1cc(OCc2ccccc2)cc2c1[C@H]1COc3cc(OC)ccc3[C@H]1O2 | – | – | inactive |
| O=C(CCCC[n+]1ccccc1)Sc1ccccc1C(=O)Nc1ccc(S(=O)(=O)NC(=O)c2ccccc2)cc1 | 18.2 | 61.7 µM | – |
| CC1=C2CCCC2=C/C(=N/Nc2ccc([N+](=O)[O-])cc2[N+](=O)[O-])CC1 | – | – | inactive |
| Cn1cc(-c2ccc3c4ccccc4n(C)c3c2)c2ccccc21 | > 8.71 | > 8.71 µM | – |
| CCCN1CN(C(C(=O)N[C@@H]2C(=O)N3C2SC(C)(C)C3C(=O)O)c2ccccc2)CSC1=S (some centres not stated) | > 257 | 148 µM | – |
| O=c1[nH]c2[nH]c(-c3ccc(Br)cc3)cc2c2ccccc12 | > 200 | > 200 µM | – |
| CC1CC(c2ccc(Cl)c(Cl)c2)=Nc2ccccc2S1 (configuration not stated) | > 6.17 | > 6.17 µM | – |
| COc1ccc(-c2nnc(CCCCCCCCc3nnc(-c4ccc(OC)cc4)o3)o2)cc1 | > 200 | > 200 µM | – |

| Structure (SMILES) | EC50 [µM] | IC50 | outcome |
| --- | --- | --- | --- |
| N#CC1=C(N)OC(c2cccc([N+](=O)[O-])c2)C1(C#N)C#N (configuration not stated) | > 200 | 15.5 µM | – |
| C=CC1(CC[C@]2(c3ccc(OC)c(OC)c3)C=[N+]([O-])O[C@H](O[C@@H]3CCCC[C@H]3C(C)(C)c3ccccc3)C2)OCC(C)(C)CO1 | > 200 | 11.2 µM | – |
| CCCCCCCSc1nc2c(C(=O)OCC)ncn2c2ccccc12 | > 19.5 | > 19.5 µM | – |
| Cc1cccc(N=Cc2ccc(N(CCC#N)S(=O)(=O)c3ccccc3)cc2C)c1 | > 224 | 145 µM | – |
| N/N=C1/CCN2CCCc3cccc1c32 | > 200 | 182 µM | – |
| CNC(=S)Nc1ccc(OC)c2ccccc12 | > 200 | > 200 µM | – |
| COc1cc(-c2oc3c(Cl)cc(Cl)cc3c(=O)c2O)cc(OC)c1OC | > 200 | 38 µM | – |
| COC(=O)c1cc(C)ccc1C1CN=NC12Cc1ccc(C)cc1C2=O (configuration not stated) | 145 | 182 µM | – |
| COC(=O)/C=C(\C(=O)OC)c1c2c3c(cc(OC)c(OC)c3c3ccccc13)CCN2C | – | – | inactive |
| O=[N+]([O-])c1ccccc1Sc1ccccc1 | > 100 | 79.4 µM | – |
| CC(C)=CC(=O)C1c2cccc(O)c2C(=O)c2c(O)cc(C)cc21 (configuration not stated) | > 30.9 | 10.2 µM | – |
| Clc1ccc(Cl)c(-c2csc(-c3cccnc3)n2)c1 | > 200 | 36.3 µM | – |
| O=C1C(C(O)(C(F)(F)F)C(F)(F)F)CCC1C(O)(C(F)(F)F)C(F)(F)F (configuration not stated) | – | – | inactive |
| OC1(c2ccccc2)CC(c2ccccc2)c2ccccc2O1 (configuration not stated) | > 200 | 31.6 µM | – |
| O=[N+]([O-])c1ccc(-c2cnc3ccccn23)cc1 | > 105 | > 105 µM | – |
| O=C(/C=C/c1ccccc1Cl)c1ccc(Cl)c(Cl)c1 | > 8.71 | > 8.71 µM | – |
| CC1(C)CNC(=S)S1 | > 339 | > 339 µM | – |
| CC(C)c1ccc(C2C3=C(N=C4SCC(=O)N42)C(=O)c2ccccc23)cc1 (configuration not stated) | > 13.8 | > 13.8 µM | – |
| CCC1CN2CCC3(C(=O)Nc4ccccc43)C2CC1/C(=C/OC)C(=O)OC (configuration not stated) | – | – | inactive |
| O=C1CN2C(Cl)(Cl)C2(c2ccccc2)c2cc(Cl)ccc2N1CC1CC1 (configuration not stated) | > 200 | 11.7 µM | – |
| CC(=O)OCC(=O)[C@@]12OC(C)(C)O[C@@H]1C[C@H]1[C@@H]3CC(C=O)=C4C=C(OCCCl)CC[C@]4(C)[C@@]3(F)[C@@H](O)C[C@@]12C | > 200 | 6.46 µM | – |
